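Assay format: 96-well plates, 48-hour exposure. GI50 = concentration required for 50% inhibition of growth.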 The source made the active and inactive calls. No stated cut-off is given here; in the data, active = GI50 up to about 1.1 µM and inactive = higher.
What was measured:
Experiment in all cases: DTP human tumour cell line panel, 48 h
CAKI-1 = system: CAKI-1
NCI-H23 = system: NCI-H23
HOP-92 = system: HOP-92
NCI-H522 = system: NCI-H522
OVCAR-3 = system: OVCAR-3
SN12C = system: SN12C
MDA-MB-435 = system: MDA-MB-435
SK-MEL-2 = system: SK-MEL-2
RXF 393 = system: RXF 393
SK-MEL-28 = system: SK-MEL-28
EKVX = system: EKVX
UO-31 = system: UO-31
SF-539 = system: SF-539
786-0 = system: 786-0
CCRF-CEM = system: CCRF-CEM
TK-10 = system: TK-10
MOLT-4 = system: MOLT-4
LOX IMVI = system: LOX IMVI
SF-295 = system: SF-295
NCI-H226 = system: NCI-H226

Structure (SMILES) | GI50 (CAKI-1) | GI50 (NCI-H23) | GI50 (HOP-92) | GI50 (NCI-H522) | GI50 (OVCAR-3) | GI50 (SN12C) | GI50 (MDA-MB-435) | GI50 (SK-MEL-2) | GI50 (RXF 393) | GI50 (SK-MEL-28) | GI50 (EKVX) | GI50 (UO-31) | GI50 (SF-539) | GI50 (786-0) | GI50 (CCRF-CEM) | GI50 (TK-10) | GI50 (MOLT-4) | GI50 (LOX IMVI) | GI50 (SF-295) | GI50 (NCI-H226)
c1cc(C2=NCCO2)c2ccsc2c1 | > 100 µM (inactive) | > 100 µM (inactive) | 41.2 µM (inactive) | > 100 µM (inactive) | > 100 µM (inactive) | > 100 µM (inactive) | > 100 µM (inactive) | > 100 µM (inactive) | > 100 µM (inactive) | > 100 µM (inactive) | > 100 µM (inactive) | > 100 µM (inactive) | > 100 µM (inactive) | > 100 µM (inactive) | > 100 µM (inactive) | > 100 µM (inactive) | > 100 µM (inactive) | > 100 µM (inactive) | > 100 µM (inactive) | > 100 µM (inactive)
CCN1C(Cl)=NS(=O)(=O)c2ccccc21 | 1.93 µM (inactive) | 23.6 µM (inactive) | 18.8 µM (inactive) | 4.66 µM (inactive) | 19.3 µM (inactive) | 18.6 µM (inactive) | 49.7 µM (inactive) | 39.7 µM (inactive) | 17.3 µM (inactive) | 74.8 µM (inactive) | 23.8 µM (inactive) | 16.9 µM (inactive) | 15.9 µM (inactive) | 19.3 µM (inactive) | 3.9 µM (inactive) | 18.5 µM (inactive) | 10.2 µM (inactive) | 15.7 µM (inactive) | > 100 µM (inactive) | 21.6 µM (inactive)
CCOC(=O)c1cc(I)c(-c2cc(C)no2)n1C | 20.3 µM (inactive) | 44.1 µM (inactive) | 36.4 µM (inactive) | 33.4 µM (inactive) | 38.4 µM (inactive) | 21.5 µM (inactive) | 34.8 µM (inactive) | > 100 µM (inactive) | 15.4 µM (inactive) | > 100 µM (inactive) | 27 µM (inactive) | 37.9 µM (inactive) | > 100 µM (inactive) | 43.5 µM (inactive) | 27.9 µM (inactive) | > 100 µM (inactive) | 21.2 µM (inactive) | 37.3 µM (inactive) | 55.7 µM (inactive) | > 100 µM (inactive)
COC1(C)CCC(OS(C)(=O)=O)CO1 (stereo not given) | > 100 µM (inactive) | > 100 µM (inactive) | > 100 µM (inactive) | > 100 µM (inactive) | > 100 µM (inactive) | > 100 µM (inactive) | > 100 µM (inactive) | > 100 µM (inactive) | > 100 µM (inactive) | > 100 µM (inactive) | > 100 µM (inactive) | > 100 µM (inactive) | > 100 µM (inactive) | > 100 µM (inactive) | > 100 µM (inactive) | > 100 µM (inactive) | > 100 µM (inactive) | > 100 µM (inactive) | > 100 µM (inactive) | > 100 µM (inactive)
CO[P@]1(=O)O[C@@H](c2ccccc2)[C@H](O)[C@@]1(O)c1ccccc1 | > 100 µM (inactive) | > 100 µM (inactive) | > 100 µM (inactive) | > 100 µM (inactive) | > 100 µM (inactive) | > 100 µM (inactive) | > 100 µM (inactive) | > 100 µM (inactive) | > 100 µM (inactive) | > 100 µM (inactive) | > 100 µM (inactive) | > 100 µM (inactive) | > 100 µM (inactive) | > 100 µM (inactive) | > 100 µM (inactive) | > 100 µM (inactive) | > 100 µM (inactive) | > 100 µM (inactive) | > 100 µM (inactive) | > 100 µM (inactive)
C[C@@H]1CCC2[C@@H](C)[C@@H](O[C@H]3O[C@@H]4O[C@@]5(C)CCC6[C@H](C)CCC([C@H]3C)[C@]64OO5)O[C@@H]3O[C@@]4(C)CCC1[C@@]23OO4 (stereo not given in full) | > 25 µM (inactive) | 1.1 µM (active) | 3.63 µM (inactive) | 0.861 µM (active) | 7.45 µM (inactive) | 16.7 µM (inactive) | 6.97 µM (inactive) | 16 µM (inactive) | > 12.6 µM (inactive) | > 25 µM (inactive) | 2.07 µM (inactive) | 1.71 µM (inactive) | > 5.51 µM (inactive) | 21.9 µM (inactive) | 7.46 µM (inactive) | > 20 µM (inactive) | 2.17 µM (inactive) | 0.973 µM (active) | > 16.7 µM (inactive) | > 15.6 µM (inactive)
CO[C@H]1C[C@@H]2CC[C@@H](C)[C@@](O)(O2)C(=O)C(=O)N2CCCC[C@H]2C(=O)O[C@H]([C@H](C)C[C@@H]2CC[C@@H](OC(=O)C(C)(CO)CO)[C@H](OC)C2)CC(=O)[C@H](C)/C=C(\C)[C@@H](O)[C@@H](OC)C(=O)[C@H](C)C[C@H](C)/C=C/C=C/C=C/1C [TEMSIROLIMUS] | 0.0142 µM (active) | 0.00501 µM (active) | 0.00254 µM (active) | 0.0802 µM (active) | 0.00183 µM (active) | 0.00607 µM (active) | 0.0243 µM (active) | 0.051 µM (active) | 0.0034 µM (active) | 0.0298 µM (active) | 0.0185 µM (active) | 0.00496 µM (active) | 0.00873 µM (active) | 0.00312 µM (active) | 0.00177 µM (active) | 0.00262 µM (active) | 0.00176 µM (active) | 0.00327 µM (active) | 0.000557 µM (active) | 0.0116 µM (active)
Cc1cc(O)c(C(C)C)cc1/N=C/c1ccccc1O | 12.1 µM (inactive) | 15.2 µM (inactive) | 0.621 µM (active) | 3.72 µM (inactive) | 2.48 µM (inactive) | 4.54 µM (inactive) | 1.99 µM (inactive) | 11 µM (inactive) | 1.34 µM (inactive) | 15.1 µM (inactive) | 7.87 µM (inactive) | 13.2 µM (inactive) | 30.8 µM (inactive) | 5.73 µM (inactive) | 0.0242 µM (active) | 13.1 µM (inactive) | 0.301 µM (active) | 3.13 µM (inactive) | 13.1 µM (inactive) | 5.52 µM (inactive)
COc1cc(-c2nc3ccccn3c2/N=C/c2cc(Br)cc(Br)c2O)ccc1O | 29.2 µM (inactive) | 24.3 µM (inactive) | 23.4 µM (inactive) | 23.2 µM (inactive) | 15.6 µM (inactive) | 19.5 µM (inactive) | 22.4 µM (inactive) | 22.3 µM (inactive) | 32.9 µM (inactive) | 16.6 µM (inactive) | 19.1 µM (inactive) | 13.7 µM (inactive) | 27.4 µM (inactive) | 18 µM (inactive) | 17.7 µM (inactive) | 23.9 µM (inactive) | 22.9 µM (inactive) | 24 µM (inactive) | 20.7 µM (inactive) | 24.1 µM (inactive)
CN(C)c1nc(N(C)C)nc(N(C)C)n1 [ALTRETAMINE] | 130 µM (inactive) | > 143 µM (inactive) | 147 µM (inactive) | 141 µM (inactive) | 142 µM (inactive) | > 150 µM (inactive) | > 150 µM (inactive) | > 150 µM (inactive) | > 150 µM (inactive) | > 150 µM (inactive) | > 150 µM (inactive) | > 147 µM (inactive) | > 143 µM (inactive) | > 150 µM (inactive) | > 147 µM (inactive) | > 150 µM (inactive) | 133 µM (inactive) | > 145 µM (inactive) | > 150 µM (inactive) | > 150 µM (inactive)
CCOC(=O)C1=C(C)N(Cc2ccccc2)C2(O)C(OC)CC(=O)C3C(=O)N(c4ccccc4)C(=O)C132 (stereo not given) | 17 µM (inactive) | 15.8 µM (inactive) | 14.2 µM (inactive) | 5.98 µM (inactive) | 7.41 µM (inactive) | 10.6 µM (inactive) | 5.05 µM (inactive) | 7.57 µM (inactive) | 5.69 µM (inactive) | 7.33 µM (inactive) | 23.7 µM (inactive) | 13.3 µM (inactive) | 15 µM (inactive) | 8.07 µM (inactive) | 3.91 µM (inactive) | 22.4 µM (inactive) | 7.45 µM (inactive) | 3.39 µM (inactive) | 15.2 µM (inactive) | 15.1 µM (inactive)
CSCCCNC(=O)c1csc(-c2csc(CCNC(=O)CNC(=O)OC(C)(C)C)n2)n1 | > 100 µM (inactive) | 77.6 µM (inactive) | > 100 µM (inactive) | > 100 µM (inactive) | > 100 µM (inactive) | > 100 µM (inactive) | > 100 µM (inactive) | > 100 µM (inactive) | > 100 µM (inactive) | > 100 µM (inactive) | > 100 µM (inactive) | > 100 µM (inactive) | > 100 µM (inactive) | > 100 µM (inactive) | 43.1 µM (inactive) | > 100 µM (inactive) | 40.7 µM (inactive) | > 100 µM (inactive) | > 100 µM (inactive) | > 100 µM (inactive)

From ChEMBL document CHEMBL1201862, “PubChem BioAssay data set” (2004)
